Data reported in US9856279B2 (AGIOS PHARMACEUTICALS, INC, priority 2011, dated 2018).
Where two headings read alike, the source gives them in different places.

How the values were obtained:
IDH1 R132H = IDH1 R132H (Homo sapiens, UniProt O75874, R132H); assay: Assay for IDH1 R132H inhibitors (NADPH/aKG, resazurin detection); assay type: biochemical
In short: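 Compound added to substrate mix (8 uM NADPH, 2 mM aKG), then enzyme mix (0.2 μg/ml IDH1 R132H); 50 min RT in 20 mM Tris pH 7.5, 150 mM NaCl, 10 mM MgCl2, 0.03% BSA. Resazurin detection mix (30 μM) 5 min RT; resorufin fluorescence Ex544/Em590.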

HT1080 cells = assay: Cellular assay for IDH1m inhibitors: inhibition of 2-HG production (LC-MS, 48 hours) in HT1080 cells; assay type: cell-based; details: Homo sapiens, HT-1080; inhibition of 2-HG production, HT1080 cells; read-out: HT1080 IC50
Experimental: Cells (e.g., HT1080 or U87MG) and are grown in T125 flasks in DMEM containing 10% FBS, 1× penicillin/streptomycin and 500 ug/mL G418. They are harvested by trypsin and seeded into 96 well white bottom plates at a density of 5000 cell/well in 100 ul/well in DMEM with 10% FBS. No cells are plates in columns 1 and 12. Cells are incubated overnight at 37° C. in 5% CO2. The next day compounds are made up at 2× concentration and 100 ul are added to each cell well. The final concentration of DMSO is 0.2% and the DMSO control wells are plated in row G. The plates are then placed in the incubator for 48 hours. At 48 hours, 100 μl of media is removed from each well and analyzed by LC-MS for 2-HG concentrations. The cell plate is placed back in the incubator for another 24 hours. At 72 hours post compound addition, 10 mL/plate of Promega Cell Titer Glo reagent is thawed and mixed. The cell plate is removed from the incubator and allowed to equilibrate to room temperature. Then 100 ul of reagent is added to each well of media. The cell plate is then placed on an orbital shaker for 10 minutes and then allowed to sit at room temperature for 20 minutes. The plate is then read for luminescence with an integration time of 500 ms.
The IC50 for inhibition of 2-HG production (concentration of test compound to reduce 2HG production by 50% compared to control) in these two cell lines for various compounds of formula I is set forth in Table 4 above.

[1] = enzyme assay of Example 12, read-out: IDH1R132H IC50

IDH1 R132H, sequence (O75874 whole entry R132H): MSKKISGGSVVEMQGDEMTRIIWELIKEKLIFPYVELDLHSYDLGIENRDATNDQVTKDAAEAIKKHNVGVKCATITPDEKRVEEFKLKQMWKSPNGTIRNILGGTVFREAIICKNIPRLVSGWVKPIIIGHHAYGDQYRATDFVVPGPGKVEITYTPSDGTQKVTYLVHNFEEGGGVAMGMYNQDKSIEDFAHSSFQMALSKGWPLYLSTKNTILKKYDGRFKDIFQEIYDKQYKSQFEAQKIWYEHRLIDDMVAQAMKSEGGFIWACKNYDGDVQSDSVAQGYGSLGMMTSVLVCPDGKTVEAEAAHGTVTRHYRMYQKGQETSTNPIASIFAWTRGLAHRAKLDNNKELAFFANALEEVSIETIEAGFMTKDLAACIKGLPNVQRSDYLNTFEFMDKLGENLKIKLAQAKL

Row | IC50 (IDH1 R132H; [1]) [nM] | IC50 (HT1080 cells) [nM] | IC50 (IDH1 R132H; Table 3, enzyme assay, 50 minutes at room temperature, read-out: IC50 (IDH1 R132H Inhibition)) [nM] | Compound
1 | < 500 | 1000 to 10000 | – | CCS(=O)(=O)N1CCN(c2cc(C#N)c(N3CCN(C(=O)CC(F)(F)F)[C@H](C4CC4)C3)nc2C2CC2)CC1 [Compound 559]
2 | < 500 | < 500 | – | C=Cc1ccc(-c2cc(C#N)c(N3CCN(C(=O)CCOC)[C@H](C)C3)nc2C2CC2)cn1 [Compound 620, (R)-2-cyclopropyl-6-(4-(3-methoxypropanoyl)-3-methylpiperazin-1-yl)-6′-vinyl-3,3′-bipyridine-5-carbonitrile]
3 | < 500 | < 500 | – | C=Cc1cc(-c2cc(C#N)c(N3CCN(C(=O)CCO)C(C)C3)nc2C2CC2)ccn1 (centres unmarked) [Compound 572]
4 | < 500 | 500 to 1000 | – | CCO[C@@H]1C[C@@H]1C(=O)N1CCN(c2nc(C3CC3)c(-c3cccc4cnccc34)cc2C#N)C[C@H]1C [Compound 517, 6-cyclopropyl-2-((R)-4-((1S,2R)-2-ethoxycyclopropanecarbonyl)-3-methylpiperazin-1-yl)-5-(isoquinolin-5-yl)nicotinonitrile]
5 | < 500 | 1000 to 10000 | – | N#Cc1cc(Nc2ccnc3ccccc23)c(C2CC2)nc1N1CCN(C(=O)CC(F)(F)F)[C@H](C2CC2)C1 [Compound 560, (R)-6-cyclopropyl-2-(3-cyclopropyl-4-(3,3,3-trifluoropropanoyl)piperazin-1-yl)-5-(quinolin-4-ylamino)nicotinonitrile]
6 | 500 to 1000 | 1000 to 10000 | – | C[C@@H]1CN(c2nc(C3CC3)c(-c3ccnc(C#N)c3)cc2C#N)CCN1C(=O)C1CC1 [Compound 522, (R)-6-(4-(cyclopropanecarbonyl)-3-methylpiperazin-1-yl)-2-cyclopropyl-3,4′-bipyridine-2′,5-dicarbonitrile]
7 | < 500 | < 500 | – | C=Cc1cc(-c2cc(C#N)c(N3CCN(C(=O)CCC(OC)OC)[C@H](C)C3)nc2C2CC2)ccn1 [Compound 606, (R)-2-cyclopropyl-6-(4-(4,4-dimethoxybutanoyl)-3-methylpiperazin-1-yl)-2′-vinyl-[3,4′-bipyridine]-5-carbonitrile]
8 | < 500 | < 500 | – | COCCC(=O)N1CCN(c2nc(C3CC3)c(Nc3ccnc(Cl)c3)cc2C#N)C[C@H]1C1CC1 [Compound 679, (R)-5-((2-chloropyridin-4-yl)amino)-6-cyclopropyl-2-(3-cyclopropyl-4-(3-methoxypropanoyl)piperazin-1-yl)nicotinonitrile]
9 | < 500 | < 500 | – | N#Cc1ccnc(Nc2cc(C#N)c(N3CCN(C(=O)C[C@H]4CCO4)[C@H](C4CC4)C3)nc2C2CC2)n1 [Compound 808, 2-(5-cyano-2-cyclopropyl-6-((R)-3-cyclopropyl-4-(2-((R)-oxetan-2-yl)acetyl)piperazin-1-yl)pyridin-3-ylamino)pyrimidine-4-carbonitrile]
10 | < 500 | 500 to 1000 | – | Cc1cc(-c2cc(C#N)c(N3CCN(C(=O)C4CC4)[C@H](C4CC4)C3)nc2C2CC2)c2cccnc2n1 [Compound 557, (R)-2-(4-(cyclopropanecarbonyl)-3-cyclopropylpiperazin-1-yl)-6-cyclopropyl-5-(2-methyl-1,8-naphthyridin-4-yl)nicotinonitrile]
11 | < 500 | < 500 | – | C=Cc1cc(-c2cc(C#N)c(N3CCN(C(=O)CN4CCC4=O)[C@H](C4CC4)C3)nc2C2CC2)ccn1 [Compound 818]
12 | < 500 | < 500 | – | C=Cc1ccnc(Nc2cc(C#N)c(N3CCN(C(=O)CC4CCC4)[C@H](C4CC4)C3)nc2C2CC2)c1 [Compound 817, (R)-2-(4-(2-cyclobutylacetyl)-3-cyclopropylpiperazin-1-yl)-6-cyclopropyl-5-((4-vinylpyridin-2-yl)amino)nicotinonitrile]
13 | 500 to 1000 | < 500 | – | C=Cc1nccc(-c2cc(C#N)c(N3CCN(C(=O)C4CC4)[C@H](C4CC4)C3)nc2C2CC2)c1F [Compound 520, (R)-6-(4-(cyclopropanecarbonyl)-3-cyclopropylpiperazin-1-yl)-2-cyclopropyl-3′-fluoro-2′-vinyl-3,4′-bipyridine-5-carbonitrile]
14 | < 500 | < 500 | – | C=CC(=O)N1CCC=C(c2c(C3CC3)nc(N3CCN(C(=O)CCOC)[C@H](C)C3)c(C#N)c2C)C1 [Compound 680, (R)-5-(1-acryloyl-1,2,5,6-tetrahydropyridin-3-yl)-6-cyclopropyl-2-(4-(3-methoxypropanoyl)-3-methylpiperazin-1-yl)-4-methylnicotinonitrile]
15 | < 500 | 500 to 1000 | – | CCS(=O)(=O)N1CCN(c2cc(C#N)c(N3CCN(C(=O)C4CC4)[C@H](C4CC4)C3)nc2C2CC2)CC1 [Compound 529, (R)-2-(4-(cyclopropanecarbonyl)-3-cyclopropylpiperazin-1-yl)-6-cyclopropyl-5-(4-(ethylsulfonyl)piperazin-1-yl)nicotinonitrile]
16 | 500 to 1000 | 1000 to 10000 | – | C=Cc1cc(-c2cc(C#N)c(N3CCN(C(=O)CCOC)[C@H](C)C3)nc2C2CC2)cc(C#N)n1 [Compound 672, (R)-2-cyclopropyl-6-(4-(3-methoxypropanoyl)-3-methylpiperazin-1-yl)-6′-vinyl-[3,4′-bipyridine]-2′,5-dicarbonitrile]
17 | < 500 | < 500 | – | Cc1cc(-c2cc(C#N)c(N3CCN(C(=O)C4CC4)[C@H](C4CC4)C3)nc2C2CC2)c2ccncc2n1 [Compound 553, (R)-2-(4-(cyclopropanecarbonyl)-3-cyclopropylpiperazin-1-yl)-6-cyclopropyl-5-(2-methyl-1,7-naphthyridin-4-yl)nicotinonitrile]
18 | < 500 | < 500 | – | C=Cc1ccc(Nc2cc(C#N)c(N3CCN(C(=O)CCO)[C@H](C)C3)nc2C2CC2)cn1 [Compound 577, (R)-6-cyclopropyl-2-(4-(3-hydroxypropanoyl)-3-methylpiperazin-1-yl)-5-((6-vinylpyridin-3-yl)amino)nicotinonitrile]
19 | < 500 | < 500 | – | N#Cc1ccc2c(-c3cc(C#N)c(N4CCN(C(=O)CC(F)(F)F)[C@H](C5CC5)C4)nc3C3CC3)cccc2n1 [Compound 535, (R)-5-(5-cyano-2-cyclopropyl-6-(3-cyclopropyl-4-(3,3,3-trifluoropropanoyl)piperazin-1-yl)pyridin-3-yl)quinoline-2-carbonitrile]
20 | < 500 | 500 to 1000 | – | N#Cc1cc(-c2ccc3ncsc3c2)c(C2CC2)nc1N1CCN(C(=O)CC(F)(F)F)[C@H](C2CC2)C1 [Compound 537, (R)-5-(benzo[d]thiazol-6-yl)-6-cyclopropyl-2-(3-cyclopropyl-4-(3,3,3-trifluoropropanoyl)piperazin-1-yl)nicotinonitrile]
21 | < 500 | < 500 | – | C=C(CO)c1cc(-c2cc(C#N)c(N3CCN(C(=O)CCOC)[C@H](C)C3)nc2C2CC2)ccn1 [Compound 653, (R)-2-cyclopropyl-2′-(3-hydroxyprop-1-en-2-yl)-6-(4-(3-methoxypropanoyl)-3-methylpiperazin-1-yl)-[3,4′-bipyridine]-5-carbonitrile]
22 | < 500 | < 500 | – | Cc1cc2c(-c3cc(C#N)c(N4CCN(C(=O)CCO)[C@H](C)C4)nc3C3CC3)cccc2cn1 [Compound 588, (R)-6-cyclopropyl-2-(4-(3-hydroxypropanoyl)-3-methylpiperazin-1-yl)-5-(3-methylisoquinolin-5-yl)nicotinonitrile]
23 | < 500 | < 500 | – | C=Cc1cc(-c2cc(C#N)c(N3CCN(C(=O)CCOC)[C@H](C)C3)nc2C2CC2)cc(C=C)n1 [Compound 624, (R)-2-cyclopropyl-6-(4-(3-methoxypropanoyl)-3-methylpiperazin-1-yl)-2′,6′-divinyl-[3,4′-bipyridine]-5-carbonitrile]
24 | < 500 | < 500 | – | C=Cc1ccc2c(-c3cc(C#N)c(N4CCN(C(=O)CCO)[C@H](C5CC5)C4)nc3C3CC3)cccc2n1 [Compound 569, (R)-6-cyclopropyl-2-(3-cyclopropyl-4-(3-hydroxypropanoyl)piperazin-1-yl)-5-(2-vinylquinolin-5-yl)nicotinonitrile]
25 | < 500 | – | – | N#Cc1cc(-c2cccnc2)c(C2CC2)nc1N1CCN(C(=O)CC(F)(F)F)[C@H](C2CC2)C1 [Compound 524, (R)-2-cyclopropyl-6-(3-cyclopropyl-4-(3,3,3-trifluoropropanoyl)piperazin-1-yl)-[3,3′-bipyridine]-5-carbonitrile]
26 | – | – | 5000 to 15000 | CC(C)c1nc(N2CCN(C(=O)c3ccoc3)CC2c2ccccc2)c(C#N)cc1-c1ccccc1 (centres unmarked) [Compound 159, 2-(4-(furan-3-carbonyl)-2-phenylpiperazin-1-yl)-6-isopropyl-5-phenylnicotinonitrile]
